We go through six compounds from patent US5945433A, “Quinoline derivatives containing a diol as leukotriene antagonists” (Leo Pharmaceutical Products, Ltd. A/S, priority 1995, dated 1999).

Where “and” joins values, the source holds several entries; their conditions need not be identical. Equal values may be shown once. Read-outs that look alike come from different tables or passages of the source. Some results are limits rather than exact numbers.

For assay [1], the target named is T1, LTD4 receptor (Cavia porcellus, UniProt Q2NNR5).
T1 construct: from tissue; host or cells: guinea-pig lung membranes
T1 sequence (Q2NNR5 1-340): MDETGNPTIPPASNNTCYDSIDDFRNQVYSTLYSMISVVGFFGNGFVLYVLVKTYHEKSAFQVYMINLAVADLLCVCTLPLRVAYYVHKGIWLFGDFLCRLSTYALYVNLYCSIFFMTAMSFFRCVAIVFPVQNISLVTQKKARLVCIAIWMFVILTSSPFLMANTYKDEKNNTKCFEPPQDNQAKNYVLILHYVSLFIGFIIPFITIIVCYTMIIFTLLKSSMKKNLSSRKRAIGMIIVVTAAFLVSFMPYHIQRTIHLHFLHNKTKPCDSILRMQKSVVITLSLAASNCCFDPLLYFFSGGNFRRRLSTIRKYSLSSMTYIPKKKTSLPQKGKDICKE
Kind of assay: Receptor binding: direct competition with [^3 H]LTD4 on guinea-pig lung membranes. The following applies: mean ± SD (n) or individual values. The method, then:
It is of importance to investigate the receptor binding properties of leukotriene antagonists in relation to their inhibition of smooth muscle contraction. Receptor binding studies may be performed with guinea-pig lung membranes in a direct competition assay between a leukotrien antagonist and [^3 H]LTD4 for binding to the LTD4 receptor^3,4. A pIC50 value is determined as the negative logarithm of the molar concentration of antagonist inhibiting [^3 H]LTD4 binding by 50%. The pIC50 values for the compounds of the present invention are equal to or higher than those for the reference compound SR3040^5 (see Table I)

Assay [2] deals with LTD4-induced bronchoconstriction. Description: LTD4-induced bronchoconstriction in anaesthetized guinea-pigs. To be noted: Cavia porcellus. Type of assay: in vivo, guinea-pig. The method, then: The leukotriene antagonistic effect was tested in vivo on LTD4 -induced bronchoconstriction in anaesthetized guinea-pigs^3. […] The ED50 values represent the dose inhibiting the leukotriene induced bronchoconstriction by 50%. The ED50 values were calculated by regression analysis of 2-3 doses.

Where [3] appears, read: absence of albumin, read-out: pIC50, binding of [^3 H]LTD4, absence of albumin (converted).
Where [4] appears, read: presence of 0.1% human serum albumin, read-out: pIC50, binding of [^3 H]LTD4, presence of albumin (converted).
[5] abbreviates: iv, 10 min, i.v., 10 min before bronchoconstriction.
Where [6] appears, read: po, 4 h before bronchoconstriction.
Setting [7] is: po, 24 h before bronchoconstriction.
[8] abbreviates: po, 48 h before bronchoconstriction.

Turning to `OC[C@H](O)[C@H](Nc1cccc(/C=C/c2ccc3ccc(Cl)cc3n2)c1)c1ccccc1` [Example 3], the IC50 in assay [1] (setting [3]) is 5.01 nM and 6.31 nM; in assay [1] (setting [4]), 3.98 nM and 2.51 nM. For the same compound, the ED50 in assay [2] (setting [5]) amounted to 0.3 mg/kg; in assay [2] (setting [6]), 0.956 mg/kg; in assay [2] (setting [7]) it was 20.3 mg/kg.
As to `OC[C@@H](O)[C@@H](Nc1cccc(/C=C/c2ccc3ccc(Cl)cc3n2)c1)c1ccccc1` [Example 4], the IC50 in assay [1] (setting [3]) is 3.98 nM; in assay [1] (setting [4]), 1.26 nM and 2 nM. The ED50 is 0.35 mg/kg in assay [2] (setting [5]), 3.63 mg/kg in assay [2] (setting [6]), 8.66 mg/kg in assay [2] (setting [7]) and > 30 mg/kg in assay [2] (setting [8]).
For `OC[C@H](O)[C@H](Nc1cccc(/C=C/c2ccc3ccc(F)cc3n2)c1)c1ccccc1` [Example 5], the IC50 in assay [1] (setting [3]) is 3.98 nM; in assay [1] (setting [4]) it was 2.51 nM.
For `OC[C@@H](O)[C@@H](Nc1cccc(/C=C/c2ccc3ccc(F)cc3n2)c1)c1ccccc1` [Example 6], the IC50 in assay [1] (setting [3]) and in assay [1] (setting [4]) was 1.58 nM throughout.
As for `OC[C@H](O)[C@H](Nc1cccc(/C=C/c2ccc3cc(F)c(F)cc3n2)c1)c1ccccc1` [Example 7, (+)-2R,3R-E-3-N-[3-2-(6,7-difluoroquinolin-2-yl)ethenyl]-phenylamino-3-phenyl-1,2-propandiol], the IC50 in assay [1] (setting [3]) was 1.58 nM; in assay [1] (setting [4]), 0.794 nM. Moreover, the ED50 in assay [2] (setting [5]) was 0.058 mg/kg; in assay [2] (setting [6]), 1.64 mg/kg; in assay [2] (setting [7]), 4.64 mg/kg; in assay [2] (setting [8]), 9.73 mg/kg; in assay [2] (po, 72 h before bronchoconstriction), > 30 mg/kg.
Consider `OC[C@@H](O)[C@@H](Nc1cccc(/C=C/c2ccc3cc(F)c(F)cc3n2)c1)c1ccccc1` [Example 8], for which the IC50 in assay [1] (setting [3]) is 1 nM; in assay [1] (setting [4]), 0.501 nM. Further, the ED50 in assay [2] (setting [5]) was 0.18 mg/kg; in assay [2] (setting [7]) it was 14.9 mg/kg; in assay [2] (setting [8]), > 30 mg/kg.
